Like-named read-outs stand apart in the source and are kept apart here.
Legend:
[1] = tested on: T.b. brucei; parameters: method as in PMID 26258172; conditions: ref [53]; read-out: IC50 T.b. brucei, previously reported; cited from earlier work
[2] = tested on: T. cruzi Tulahuen strain parasites in 3T3 host cells; assay: T. cruzi 48 h image-based assay; type: cell-based, Trypanosoma cruzi
[3] = tested on: T. cruzi Tulahuen strain parasites in 3T3 host cells; parameters: method as in PMID 28674055; conditions: liquid stocks; ref [16]; read-out: IC50 T. cruzi in the previous studies; cited from earlier work
[4] = tested on: T. cruzi; parameters: method as in PMID 25583723; conditions: 96 h; ref [54]; read-out: IC50 T. cruzi following 96 h incubation; cited from earlier work
[5] = tested on: T. cruzi; assay: T. cruzi compound wash off assay (48 h with compound, wash off, 72 h without); type: cell-based, Trypanosoma cruzi; conditions: for Fold Change of IC50, wash off vs 48 h: IC50 from 48 h incubation to IC50 following wash off and further 72 h; for IC50 / Emax: Trypanosoma cruzi; for IC50: read-out: IC50 Wash Off
[6] = tested on: T. cruzi; assay: T. cruzi temporal image-based assay, 24 h exposure; type: cell-based, Trypanosoma cruzi; conditions: Trypanosoma cruzi; for IC50: read-out: IC50 24 h T. cruzi
[7] = tested on: T.b. gambiense STIB930; assay: T.b. gambiense STIB930 assay, 72 h; type: cell-based; conditions: Trypanosoma brucei, unit inferred, read-out: IC50 T. Bg STIB930 (T.b. gambiense)
[8] = tested on: T. cruzi and T.b. brucei; assay: Speed of action and cidality classification from temporal and wash off assays; type: cell-based, Trypanosoma cruzi, Trypanosoma brucei brucei; conditions: for Speed of Action (FA/SA): TC = T. cruzi, TBB = T.b. brucei; for Speed of Action (Table 5): prioritised compounds, Fast/Slow
[9] = tested on: T.b. brucei; assay: T.b. brucei temporal viability (time-kill) assay, 48 h, PrestoBlue; type: cell-based, Trypanosoma brucei brucei; conditions: Trypanosoma brucei; for IC50: read-out: IC50 48 h T.b. brucei
[10] = tested on: T.b. rhodesiense STIB900; assay: T.b. rhodesiense STIB900 assay, 72 h; type: cell-based; conditions: Trypanosoma brucei; STIB900, 72 h; unit inferred; read-out: IC50 T. bR (T.b. rhodesiense)
[11] = tested on: T.b. brucei; assay: T.b. brucei temporal viability (time-kill) assay, 24 h, PrestoBlue; type: cell-based, Trypanosoma brucei brucei; conditions: Trypanosoma brucei; for IC50: read-out: IC50 24 h T.b. brucei
Protocol: Time-kill assays was undertaken as previously described, using the REDOX reagent PrestoBlue® [24]. […] Control compounds were added at the same concentrations at outlined for the resazurin-based assays.

[12] = tested on: HEPG2 cells; assay: HEPG2 cytotoxicity assay; type: cell-based, human
[13] = tested on: T.b. brucei bloodstream 427 strain parasites; assay: T.b. brucei 72 h REDOX-based (resazurin) viability assay; type: cell-based, Trypanosoma brucei brucei; conditions: for Emax / IC50: Trypanosoma brucei, 72 h
[14] = target: T. cruzi recombinant CYP51 (TcCYP51) (Trypanosoma cruzi, UniProt Q7Z1V1); assay: biochemical; conditions: for Inhibition of TcCYP51 (in words): criterion: IC50 within a log difference to posaconazole
Sequence of T. cruzi recombinant CYP51 (TcCYP51) (Q7Z1V1 whole entry): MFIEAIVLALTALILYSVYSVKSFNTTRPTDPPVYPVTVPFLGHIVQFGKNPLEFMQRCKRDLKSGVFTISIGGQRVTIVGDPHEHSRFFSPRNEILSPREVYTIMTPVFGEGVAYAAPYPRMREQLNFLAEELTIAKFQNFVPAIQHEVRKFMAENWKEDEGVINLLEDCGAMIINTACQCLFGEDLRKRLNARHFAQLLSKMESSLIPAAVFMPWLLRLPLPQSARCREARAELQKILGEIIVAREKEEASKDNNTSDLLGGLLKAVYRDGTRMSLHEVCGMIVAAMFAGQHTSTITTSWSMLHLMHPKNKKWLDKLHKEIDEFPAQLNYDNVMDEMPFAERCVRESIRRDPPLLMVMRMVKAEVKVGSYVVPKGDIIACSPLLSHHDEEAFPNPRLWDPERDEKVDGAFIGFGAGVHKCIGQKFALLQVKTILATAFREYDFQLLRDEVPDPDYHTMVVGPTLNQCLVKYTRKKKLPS
Protocol: The inhibitory properties of compounds against T. cruzi recombinant CYP51 (TcCYP51) was determined using an in vitro assay as previously described [33, 41]. Compounds which inhibited T. cruzi in an image-based assay were tested against TcCYP51 in log concentrations (100, 33, 10, 3.3, 1.0, 0.33, 0.1 and 0 µM), with one replicate per dose, as previously described [41]. The control compound posaconazole was incubated at the same concentrations as the test compounds, over two replicates.
Of the fast-acting compounds, if there was more than one compound with activity against T. cruzi, one representative compound from each chemical class was selected. […] Slow-acting compounds were also tested for activity against TcCYP51. The criteria defining a compound with TcCYP51 activity required that the IC50 value was within a log difference to posaconazole, as previously reported [33].

[15] = cited from earlier work
[16] = tested on: CYP1A2; parameters: method as in earlier work; conditions: Pathogen Box in vitro DMPK data; ref [10]; cited from earlier work
[17] = tested on: HEK293 cells; assay: HEK293 cytotoxicity assay; type: cell-based, human; conditions: HEK293, 72 h; NA = not active; highest dose 79 µM unless given
[18] = tested on: T. cruzi; parameters: method as in PMID 29016289; conditions: treated for 40 days; ref [4]; cited from earlier work
[19] = Trypanosoma cruzi, TULAHUEN, 48 h, read-out: IC50 (T. cruzi)
[20] = selectivity index in relation to 3T3 host cells; highest dose 3T3 73 µM
[21] = selectivity index in relation to HEK293 cells
[22] = selectivity index in relation to HEPG2 cells
[23] = T. cruzi, 48 h incubation, wash off, further 72 h
[24] = NA = not active at given concentration
[25] = Trypanosoma cruzi, TULAHUEN, 48 h; read-out: Emax % (T. cruzi) (converted)
[26] = Trypanosoma cruzi, TULAHUEN, 48 h; read-out: IC50 (T. cruzi)
[27] = read-out: Emax 48 h T.b. brucei (converted)
[28] = read-out: Emax 24 h T.b. brucei (converted)
[29] = in vivo, species not stated, ref [10]

Row | Compound | Fold Change of IC50, wash off vs 48 h ([5]; T. cruzi) [fold] | IC50 [7] [nM] | SI (T. cruzi) 3T3 [2, 20] | SI (T. cruzi) HEK [2, 21] | SI (T. cruzi) (HEP) [2, 22] | Speed of Action (FA/SA) [8] | Speed of Action (Table 5) [8] | IC50 [9] [nM] | IC50 [10] [nM] | IC50 [11] [nM] | Emax [13] [%] | IC50 [13] [nM] | IC50 [5, 23] [nM] | Emax [6] [%] | IC50 [6, 24] [nM] | Emax [2, 25] [%] | IC50 [2, 26] [nM] | Emax [9, 27] [%] | Emax [11, 28] [%] | SI (T.b. brucei) HEK [13, 21] | also measured
1 | CC(C)=CCC/C(C)=C/CNCCNC1C2CC3CC(C2)CC1C3 (stereo not drawn) [MMV687273] |  |  |  |  |  |  |  |  |  |  |  |  |  |  |  |  |  |  |  |  | IC50 [1]: 5000 nM; IC50 [2, 19]: 13000 nM; IC50 [3]: 5400 nM; IC50 [4]: 500 to 1000 nM
2 | Nc1nc2ccc(-c3cncc(Oc4ccc(F)cc4)c3)cc2[nH]1 [MMV 687248] | 1.3 | 240 ± 22 | >49 | 53 | 13 | FA (Fast-acting (FA) = IC50 value can be determined following 24 h incubation, <10-fold difference in the IC50 value from 24 to 72 h) | Fast | 200 ± 32 | 1200 ± 540 | 930 ± 47 | 99 | 510 ± 45 |  |  |  |  |  |  |  |  | IC50 [5]: 2000 ± 39 nM; IC50 [6]: 4100 ± 1300 nM; Emax ([2]; Trypanosoma cruzi, TULAHUEN, 48 h, read-out: Emax % (T. cruzi)): 99%; IC50 [2, 19]: 1500 ± 130 nM; Emax ([9]; read-out: Emax 48 h T.b. brucei): 99%; Emax ([11]; read-out: Emax 24 h T.b. brucei): 87%; IC50 ([12]; Homo sapiens, HepG2, 72 h, read-out: IC50 (HEP)): 19600 nM; SI (T.b. brucei) (HEP) [13]: 38; SI (T.b. brucei) HEK [13]: > 155
3 | CCc1ccccc1-n1c(C)cn2c3c(=O)n(C(C(=O)OC)C(C)C)c(=O)n(C)c3nc12 (stereo not drawn) [MMV 688550] | 0.58 | < 1 | >138 | >149 (>149) | >149 (>149) | FA (Fast-acting (FA) = IC50 value can be determined following 24 h incubation, <10-fold difference in the IC50 value from 24 to 72 h) | Fast | 21 ± 0.53 | 80 ± 1.4 | 22 ± 14 | 99 | 25 ± 0.83 | 310 ± 67 | 80 | 900 ± 170 | 100 | 530 ± 110 | 99 | 100 | >3160 (>3160) | Inhibition of TcCYP51 (in words) [14]: did not display activity; SI (T.b. brucei) (HEP) [13, 22]: >3160 (>3160)
4 | O=C(NCc1nnc2n1CCCCC2)c1ccc(-c2ccc(F)cc2)o1 [MMV 688796] | 1.1 | 160 ± 11 | >61 | >66 (>66) | >66 (>66) | FA (Fast-acting (FA) = IC50 value can be determined following 24 h incubation, <10-fold difference in the IC50 value from 24 to 72 h) | Fast | 97 ± 4.8 | 46 ± 31 | 240 ± 53 | 99 | 120 ± 23 | 1100 ± 480 | 91 | 2400 ± 1300 | 100 | 1200 ± 400 | 100 | 82 | >658 (>658) | Emax [5, 23]: 98%; Half-life ([15]; dosed orally in mice, ref [51]): 3.9 h; SI (T.b. brucei) (HEP) [13, 22]: >658 (>658)
5 | Cc1ccc(S(=O)(=O)Nc2ccc(CN3CCN(C(=O)c4cccc(C#N)c4)CC3)cc2)cc1 [MMV 689028] | 0.86 | 48 ± 1.1 | >104 | >113 (>113) | >113 (>113) | FA (Fast-acting (FA) = IC50 value can be determined following 24 h incubation, <10-fold difference in the IC50 value from 24 to 72 h) | Fast | 110 ± 3.2 | 280 ± 11 | 720 ± 380 | 99 | 120 ± 30 | 390 ± 20 | 91 | 1100 ± 430 | 100 | 700 ± 130 | 99 | 78 | >658 (>658) | CYP1A2 induction [16]: induced CYP1A2 activity; Emax [5, 23]: 99%; IC50 HEK [17]: no activity; Inhibition of TcCYP51 (in words) [14]: nor exhibited TcCYP51 activity; Half-life [15, 29]: 6.8 h; IC50 (HEP) ([12]; HEPG2, 72 h, NA = not active, highest dose 79 µM unless given): no activity; SI (T.b. brucei) (HEP) [13, 22]: >658 (>658)
6 | COc1ccc(S(=O)(=O)Nc2ccc(CN3CCN(C(=O)c4cccc(C#N)c4)CC3)cc2)cc1 [MMV 689029] | 0.73 | 400 ± 120 | >61 | >66 (>66) | >66 (>66) | FA (Fast-acting (FA) = IC50 value can be determined following 24 h incubation, <10-fold difference in the IC50 value from 24 to 72 h) | Fast | 400 ± 23 | 630 ± 110 | 980 ± 340 | 99 | 420 ± 53 | 880 ± 56 | 90 | 3700 ± 260 | 100 | 1200 ± 67 | 100 | 89 | >188 (>188) | CYP1A2 induction [16]: induced CYP1A2 activity; Emax [5, 23]: 98%; IC50 ([14]; top concentration 100 µM): > 100000 nM; Half-life [15, 29]: 2.4 h; SI (T.b. brucei) (HEP) [13, 22]: >188 (>188)
7 | CC1(C)OB(O)c2cc(NC(=O)c3ccc(F)cc3C(F)(F)F)ccc21 [SCYX-7158] |  |  |  |  |  |  |  |  |  |  |  |  |  |  |  |  |  |  |  |  | Cure of mice infected with T. cruzi [18]: 100%

Source: article PMC9317670, “Temporal and Wash-Out Studies Identify Medicines for Malaria Venture Pathogen Box Compounds with Fast-Acting Activity against Both Trypanosoma cruzi and Trypanosoma brucei” (Microorganisms, 2022)
